According to publication PMC8322138, “BRCA2 binding through a cryptic repeated motif to HSF2BP oligomers does not impact meiotic recombination” (Nature Communications, 2021):

B1: FNMR: BRCA2 fragment aa 2252 to aa 2342, recombinant (protein)
chain: SLFTCPENEEMVLSNSRIGKRRGEPLILVGEPSIKRNLLNEFDRIIENQEKSLKASKSTPDGTIKDRRLFMHHVSLEPITTVPFRTTKERQ
modifications: left off: GB1, C-terminal, cleaved | His6, C-terminal, cleaved
notes: BRCA2 fragment aa 2252 to aa 2342, recombinant

Experiments:
ARM domain of HSF2BP [1] = molecular target: T1, ARM domain of HSF2BP (Homo sapiens, UniProt O75031); assay: SEC-SAXS of ARM bound to F15X; type: physicochemical
T1 construct: The armadillo domain of HSF2BP, from aa 122 to aa 334; 6xHis-TEV (N, cleaved yes); made in house; host or cells: E. coli BL21 DE3 Rosetta2
T1 sequence (O75031 122-334): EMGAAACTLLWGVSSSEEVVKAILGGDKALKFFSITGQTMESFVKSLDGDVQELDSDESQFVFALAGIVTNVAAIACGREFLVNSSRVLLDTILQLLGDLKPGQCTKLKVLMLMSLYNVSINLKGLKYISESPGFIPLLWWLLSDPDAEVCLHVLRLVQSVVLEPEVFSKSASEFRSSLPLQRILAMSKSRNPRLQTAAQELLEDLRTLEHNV
Protocol: SEC coupled to SAXS is available on the SWING beamline at synchrotron SOLEIL, in order to obtain a distance distribution corresponding to each sample in solution. The free HSF2BP protein as well as the complex between ARM and F15X were analyzed using a Bio SEC-3 column (Agilent) equilibrated in 25 mM Tris-HCl buffer, pH 7.5, 250 mM NaCl, and 5 mM β-mercaptoethanol. The proteins were loaded at a concentration of 6 and 10 mg/ml, in order to observe an elution peak at an OD280nm of 1 and 1.2 AU, respectively.

ARM domain of HSF2BP [2] = molecular target: T1, ARM domain of HSF2BP; assay: SEC-MALS of ARM free or bound to F15X; type: physicochemical
Protocol: Size-exclusion chromatography (SEC) coupled to MALS was used in order to measure the molecular masses of the complexes in solution. Therefore, HSF2BP and ARM proteins were loaded in the presence and absence of the BRCA2 fragment F15X on a Superdex 200 10/300 GL (GE Healthcare) using a HPLC Shimadzu system coupled to MALS/QELS/UV/RI (Wyatt Technology). The chromatography buffer was 25 mM Tris-HCl buffer, pH 7.5, 250 mM NaCl, 5 mM β-mercaptoethanol. The proteins were injected at 0.8–1 mg/ml in 100 μl. Data were analyzed using the ASTRA software; a calibration was performed with BSA as a standard.

ARM domain of HSF2BP [3] = molecular target: T1, ARM domain of HSF2BP; assay: ITC of BRCA2 fragments with HSF2BP armadillo domain; type: binding; settings: for n (stoichiometry) / ΔG / −TΔS / ΔH (±error): 293 K; for affinity relative to F0: compared with the affinity measured between ARM and F0
From the text: Human full-length HSF2BP WT and R200T were expressed using a pETM11 (6xHis-TEV) expression vector in E. coli BL21 DE3 Rosetta2 cells, and purified as previously reported (Brandsma et al., Cell Rep 2019). The armadillo domain of HSF2BP, from aa 122 to aa 334, which we will further name ARM, was similarly expressed using a pETM11 (6xHis-TEV) expression vector in BL21 DE3 Rosetta2 cells and purified as full-length HSF2BP.
Human BRCA2 fragment F0 was expressed using a pET-22b expression vector as a fusion protein comprising BRCA2 from aa 2213 to aa 2342 (including mutation C2332T to avoid oxidation problems), a TEV site, a GB1 and 6xHis tag, in E. coli BL21 DE3 Star cells. The BRCA2 gene was optimized for expression in bacteria and synthesized by Genscript. In addition, smaller BRCA2 fragments were produced using the same strategy: FNMR and F15X corresponding to aa 2252 to aa 2342 and aa 2291 to aa 2343, respectively. The smallest fragment F15X∆12, from aa 2312 to aa 2342, was synthesized by Genecust.
ITC experiments were performed using a high-precision VP-ITC instrument (GE Healthcare) at 293 K. To characterize the interactions between HSF2BP and BRCA2 fragments (WT, variants), the proteins were dialyzed against 25 mM Tris pH 7.5, 250 mM NaCl, 5 mM β-mercaptoethanol. The HSF2BP (or ARM domain) was in the sample cell at 10–20 μM and was titrated by BRCA2 fragments at 40–100 μM, using 10 μL injections with 210 s intervals between each injection. The first 2 μL injection was ignored in the final data analysis. The integration of the peaks corresponding to each injection. the correction for the baseline and the fit were performed using the Origin 7.0 software provided by the manufacturer, to obtain the stoichiometry (N), dissociation constant (Kd), and enthalpy of complex formation (ΔH) for each interaction. Two replicates were performed for each experiment.

ARM domain of HSF2BP [4] = molecular target: T1, ARM domain of HSF2BP; assay: 2D NMR 1H-15N HSQC of 15N-labeled F0 with ARM; type: binding; settings: 15N-F0 100 μM, ARM 1:1, 950 MHz, 283 K; peaks of S2252-Q2342
Protocol: For NMR analysis, ^15N-labeled or ^15N- and ^13C-labeled BRCA2 fragments were produced in E. coli BL21 DE3 Star cells grown in M9 medium containing either 0.5 g/l ^15NH4Cl or 0.5 g/l ^15NH4Cl and 2 g/l ^13C-glucose, respectively. […]
The ^15N/^13C-labeled F0 fragment was analyzed by 3D heteronuclear NMR. in order to assign its Hn, N, Cα, Cβ, and Co chemical shifts, and identify its binding site to HSF2BP. Therefore, 3D NMR HNCA, CBCACONH, HNCACB, HNCANNH, HNCO, and HNCACO experiments were performed on a 700 MHz Bruker AVANCE NEO spectrometer equipped with a triple resonance cryogenic TCI probe at 283 K. The data were processed using Topspin 4.0 (Bruker) and analyzed using CCPNMR 2.4[49]. […] For binding studies, 2D NMR ^1H-^15N HSQC experiments were recorded on a 3-mm-diameter sample tube containing the ^15N-labeled F0 at 100 μM in the absence and presence of the ARM domain at 100 μM, on a 950 MHz Bruker Avance III spectrometer equipped with a triple resonance cryogenic TCI probe at 283 K.

[5] = pH 7.5, expt 1, error in brackets
[6] = pH 7.5, expt 2, error in brackets

| Molecule | Dmax of complex with ARM (ARM domain of HSF2BP [1]) | Rg of complex with ARM (ARM domain of HSF2BP [1]) | molecular weight of complex with ARM (ARM domain of HSF2BP [1]; Bio SEC-3, 25 mM Tris-HCl pH 7.5, 250 mM NaCl, theoretical mass of four ARM bound to two F15X 108 kDa) | oligomeric state of ARM (ARM domain of HSF2BP [2]; SEC-MALS and SEC-SAXS) | molecular weight of species in solution (ARM domain of HSF2BP [2]; SEC-MALS, Superdex 200 10/300 GL, 25 mM Tris-HCl pH 7.5, 250 mM NaCl, 5 mM β-mercaptoethanol) | n (stoichiometry) (ARM domain of HSF2BP [3]; pH 7.5, expt 1) | ΔG (ARM domain of HSF2BP [3]; pH 7.5, expt 1) | −TΔS (ARM domain of HSF2BP [3]; pH 7.5, expt 1) | ΔH (±error) (ARM domain of HSF2BP [3]; [5]) | n (stoichiometry) (ARM domain of HSF2BP [3]; pH 7.5, expt 2) | ΔG (ARM domain of HSF2BP [3]; pH 7.5, expt 2) | −TΔS (ARM domain of HSF2BP [3]; pH 7.5, expt 2) | ΔH (±error) (ARM domain of HSF2BP [3]; [6]) | affinity relative to F0 (ARM domain of HSF2BP [3]) | decrease of HSQC peak intensities (ARM domain of HSF2BP [4]) |
| --- | --- | --- | --- | --- | --- | --- | --- | --- | --- | --- | --- | --- | --- | --- | --- |
| CC[C@H](C)[C@H](NC(=O)[C@H](CCCNC(=N)N)NC(=O)[C@H](CC(=O)O)NC(=O)[C@H](Cc1ccccc1)NC(=O)[C@H](CCC(=O)O)NC(=O)[C@@H](N)CC(N)=O)C(=O)N[C@H](C(=O)N[C@@H](CCC(=O)O)C(=O)N[C@@H](CC(N)=O)C(=O)N[C@@H](CCC(N)=O)C(=O)N[C@@H](CCC(=O)O)C(=O)N[C@@H](CCCCN)C(=O)N[C@@H](CO)C(=O)N[C@@H](CC(C)C)C(=O)N[C@@H](CCCCN)C(=O)N[C@@H](C)C(=O)N[C@@H](CO)C(=O)N[C@@H](CCCCN)C(=O)N[C@@H](CO)C(=O)N[C@H](C(=O)N1CCC[C@H]1C(=O)N[C@@H](CC(=O)O)C(=O)NCC(=O)N[C@H](C(=O)N[C@H](C(=O)N[C@@H](CCCCN)C(=O)N[C@@H](CC(=O)O)C(=O)N[C@@H](CCCNC(=N)N)C(=O)N[C@@H](CCCNC(=N)N)C(=O)N[C@@H](CC(C)C)C(=O)N[C@@H](Cc1ccccc1)C(=O)N[C@@H](CCSC)C(=O)N[C@@H](Cc1c[nH]cn1)C(=O)N[C@@H](Cc1c[nH]cn1)C(=O)N[C@H](C(=O)N[C@@H](CO)C(=O)N[C@@H](CC(C)C)C(=O)N[C@@H](CCC(=O)O)C(=O)N1CCC[C@H]1C(=O)N[C@H](C(=O)N[C@H](C(=O)N[C@H](C(=O)N[C@H](C(=O)N1CCC[C@H]1C(=O)N[C@@H](Cc1ccccc1)C(=O)N[C@@H](CCCNC(=N)N)C(=O)N[C@H](C(=O)N[C@H](C(=O)N[C@@H](CCCCN)C(=O)N[C@@H](CCC(=O)O)C(=O)N[C@@H](CCCNC(=N)N)C(=O)N[C@@H](CCC(N)=O)C(=O)N[C@@H](CCC(=O)O)C(=O)O)[C@@H](C)O)[C@@H](C)O)C(C)C)[C@@H](C)O)[C@@H](C)O)[C@@H](C)CC)C(C)C)[C@@H](C)CC)[C@@H](C)O)[C@@H](C)O)[C@@H](C)CC [F15X] | 104 Å | 34 Å | 109 kDa | tetrameric | 94 kDa | 0.33 | -10.6 kcal/mol | -0.4 kcal/mol | −10.2 (0.1) kcal/mol | 0.40 | -10.7 kcal/mol | -1.5 kcal/mol | −9.2 (0.1) kcal/mol | about threefold higher | – |
| B1 | – | – | – | – | – | – | -10.8 kcal/mol | -1.2 kcal/mol | −9.6 (0.1) kcal/mol | – | -10.5 kcal/mol | -1.1 kcal/mol | −9.4 (0.2) kcal/mol | about threefold higher | more than 60% |
